Reference: PMC10582325 (Frontiers in Pharmacology, 2023)

What was measured:
[1] = parameters: method as in Xu et al., 2019; settings: ref Xu et al., 2019; cited from earlier work
[2] = Lung and spleen tissue exposure in BALB/c mice
[3] = Stability of BDQ, M2 and TBI-166 in mice plasma (LC-MS/MS validation)
[4] = Steady-state plasma pharmacokinetics of BDQ, M2 and TBI-166 in BALB/c mice; settings: for AUC(0-t): Plasma; for t 1/2: after last dose
CYP1A2 = biological target: T1, CYP1A2 (Homo sapiens, UniProt P05177); assay: Direct CYP inhibition in human liver microsomes with marker probe substrates; settings: read-out: Inhibition, IC50; HLM, CYP1A2 probe substrate
T1 sequence (P05177 1-516): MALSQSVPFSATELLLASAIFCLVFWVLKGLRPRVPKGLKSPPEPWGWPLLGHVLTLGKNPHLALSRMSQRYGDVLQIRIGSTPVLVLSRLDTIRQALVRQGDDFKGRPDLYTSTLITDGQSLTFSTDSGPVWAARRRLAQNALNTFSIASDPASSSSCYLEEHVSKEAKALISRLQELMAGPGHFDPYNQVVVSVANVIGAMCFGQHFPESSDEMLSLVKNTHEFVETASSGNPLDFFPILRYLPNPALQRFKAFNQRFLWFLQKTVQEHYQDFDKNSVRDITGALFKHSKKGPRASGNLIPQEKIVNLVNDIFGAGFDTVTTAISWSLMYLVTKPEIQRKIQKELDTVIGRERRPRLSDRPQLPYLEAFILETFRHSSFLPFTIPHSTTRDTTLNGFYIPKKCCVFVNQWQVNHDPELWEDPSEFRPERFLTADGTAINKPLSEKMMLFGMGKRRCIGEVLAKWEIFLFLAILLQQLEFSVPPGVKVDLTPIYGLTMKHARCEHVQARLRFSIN

CYP2A6 = biological target: T2, CYP2A6 (Homo sapiens, UniProt P11509); assay: as above; settings: read-out: Inhibition, IC50; HLM, CYP2A6 probe substrate
T2 sequence (P11509 1-494): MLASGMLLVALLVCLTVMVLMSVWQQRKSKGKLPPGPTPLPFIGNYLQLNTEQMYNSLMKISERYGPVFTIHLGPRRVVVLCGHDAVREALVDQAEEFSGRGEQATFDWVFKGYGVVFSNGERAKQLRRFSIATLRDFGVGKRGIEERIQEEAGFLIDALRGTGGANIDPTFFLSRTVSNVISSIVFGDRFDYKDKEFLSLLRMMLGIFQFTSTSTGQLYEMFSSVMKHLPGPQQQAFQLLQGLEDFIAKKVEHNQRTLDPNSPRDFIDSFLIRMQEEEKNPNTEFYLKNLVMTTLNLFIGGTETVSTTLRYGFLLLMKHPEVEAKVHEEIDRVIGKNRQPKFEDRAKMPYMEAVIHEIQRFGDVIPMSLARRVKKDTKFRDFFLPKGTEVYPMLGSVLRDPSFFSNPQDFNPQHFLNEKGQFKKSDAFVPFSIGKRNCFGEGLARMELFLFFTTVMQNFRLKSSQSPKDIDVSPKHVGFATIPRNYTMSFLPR

CYP2C8 = biological target: T3, CYP2C8 (Homo sapiens, UniProt P10632); assay: as above; settings: read-out: Inhibition, IC50; HLM, CYP2C8 probe substrate
T3 sequence (P10632 1-490): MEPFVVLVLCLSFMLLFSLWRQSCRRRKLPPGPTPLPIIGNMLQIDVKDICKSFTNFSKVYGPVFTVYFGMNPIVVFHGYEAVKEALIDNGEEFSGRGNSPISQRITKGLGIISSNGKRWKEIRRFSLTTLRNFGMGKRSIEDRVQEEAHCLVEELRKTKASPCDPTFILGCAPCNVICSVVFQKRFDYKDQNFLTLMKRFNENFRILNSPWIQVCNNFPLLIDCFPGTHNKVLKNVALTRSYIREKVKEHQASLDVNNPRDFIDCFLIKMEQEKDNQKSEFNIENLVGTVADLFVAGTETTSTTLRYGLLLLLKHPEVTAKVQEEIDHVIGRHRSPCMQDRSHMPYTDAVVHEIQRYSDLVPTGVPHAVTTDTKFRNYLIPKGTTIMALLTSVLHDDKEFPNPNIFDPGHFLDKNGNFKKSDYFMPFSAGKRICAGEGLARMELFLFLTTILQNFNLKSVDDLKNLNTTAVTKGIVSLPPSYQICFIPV

CYP2C9 = CYP2C9 (Homo sapiens, UniProt P11712); assay: as above; settings: read-out: Inhibition, IC50; HLM, CYP2C9 probe substrate
Sequence of CYP2C9 (P11712 whole entry): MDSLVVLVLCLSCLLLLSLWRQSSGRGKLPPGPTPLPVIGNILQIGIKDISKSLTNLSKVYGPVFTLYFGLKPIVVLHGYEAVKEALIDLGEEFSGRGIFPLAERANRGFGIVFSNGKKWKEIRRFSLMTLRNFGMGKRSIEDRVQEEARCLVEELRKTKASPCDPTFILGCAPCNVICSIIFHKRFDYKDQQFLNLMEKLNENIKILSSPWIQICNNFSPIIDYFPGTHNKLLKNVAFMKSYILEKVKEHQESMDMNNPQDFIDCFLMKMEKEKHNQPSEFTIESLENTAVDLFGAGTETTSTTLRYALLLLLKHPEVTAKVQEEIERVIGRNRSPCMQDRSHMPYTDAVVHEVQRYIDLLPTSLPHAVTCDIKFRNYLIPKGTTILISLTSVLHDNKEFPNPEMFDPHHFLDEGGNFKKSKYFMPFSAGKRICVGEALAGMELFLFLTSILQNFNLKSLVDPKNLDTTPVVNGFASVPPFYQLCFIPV

CYP2E1 = CYP2E1 (Homo sapiens, UniProt P05181); assay: as above; settings: read-out: Inhibition, IC50; HLM, CYP2E1 probe substrate
Sequence of CYP2E1 (P05181 whole entry): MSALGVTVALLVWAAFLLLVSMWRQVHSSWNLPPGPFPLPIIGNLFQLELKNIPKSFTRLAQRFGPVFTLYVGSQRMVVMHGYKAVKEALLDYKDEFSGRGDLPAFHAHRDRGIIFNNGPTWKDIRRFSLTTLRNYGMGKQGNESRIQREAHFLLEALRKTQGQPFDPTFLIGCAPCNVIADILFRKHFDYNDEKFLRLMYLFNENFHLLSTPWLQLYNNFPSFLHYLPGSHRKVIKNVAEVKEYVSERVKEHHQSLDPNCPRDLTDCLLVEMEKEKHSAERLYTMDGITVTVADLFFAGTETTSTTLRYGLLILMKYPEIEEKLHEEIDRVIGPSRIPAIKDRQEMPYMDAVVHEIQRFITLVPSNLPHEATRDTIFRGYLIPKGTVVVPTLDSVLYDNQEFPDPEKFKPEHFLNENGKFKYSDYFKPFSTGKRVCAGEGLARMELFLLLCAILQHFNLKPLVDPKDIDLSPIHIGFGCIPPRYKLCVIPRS

[5] = plasma, TBI-166 group (TBI-166 alone)

COc1ncccc1Nc1cc2nc3ccccc3n(-c3ccc(OC(F)(F)F)cc3)c-2cc1=NC1CCC(OC)CC1 (stereo not shown) [TBI-166, Pyrifazimine]
concentration in liver tissue [1]: 32280 ng/mL | AUC(0-t) ([2]; Lung, BDQ + TBI-166 group): 321.07 ± 52.91 µg·h/g | tissue-to-plasma ratio (Kp) ([2]; Lung, BDQ + TBI-166 group): 5.17 | AUC(0-t) ([2]; Lung, TBI-166 group): 378.66 ± 104.67 µg·h/g | tissue-to-plasma ratio (Kp) ([2]; Lung, TBI-166 group): 5.49 | AUC(0-t) ([2]; Spleen, BDQ + TBI-166 group): 483.54 ± 94.75 µg·h/g | tissue-to-plasma ratio (Kp) ([2]; Spleen, BDQ + TBI-166 group): 7.79 | AUC(0-t) ([2]; Spleen, TBI-166 group): 296.09 ± 27.68 µg·h/g | tissue-to-plasma ratio (Kp) ([2]; Spleen, TBI-166 group): 4.29 | exposure (AUC0-t) with vs without coadministration ([2]; lungs): similar | increase of exposure (AUC0-t) after coadministration of BDQ with TBI-166 ([2]; spleens): 1.5 fold | Stability in mice plasma, RE ([3]; 4℃ for 24 h, 15 ng/mL): -15.07% | Stability in mice plasma, RE ([3]; 4℃ for 24 h, 75 ng/mL): 1.87% | Stability in mice plasma, RE ([3]; 4℃ for 24 h, 750 ng/mL): -12.65% | Stability in mice plasma, RE ([3]; -40℃ for 7 d, 15 ng/mL): -2.20% | Stability in mice plasma, RE ([3]; -40℃ for 7 d, 75 ng/mL): -1.01% | Stability in mice plasma, RE ([3]; -40℃ for 7 d, 750 ng/mL): -13.53% | Stability in mice plasma, RE ([3]; Freeze-thaw three cycles, 15 ng/mL): -14.27% | Stability in mice plasma, RE ([3]; Freeze-thaw three cycles, 75 ng/mL): -5.39% | Stability in mice plasma, RE ([3]; Freeze-thaw three cycles, 750 ng/mL): -13.50% | Stability in mice plasma, RE ([3]; In auto-sample for 24 h, 15 ng/mL): 18.87% | Stability in mice plasma, RE ([3]; In auto-sample for 24 h, 75 ng/mL): -12.61% | Stability in mice plasma, RE ([3]; In auto-sample for 24 h, 750 ng/mL): -7.77% | Stability in mice plasma, RE ([3]; Room temperature for 24 h, 15 ng/mL): -6.20% | Stability in mice plasma, RE ([3]; Room temperature for 24 h, 75 ng/mL): -6.81% | Stability in mice plasma, RE ([3]; Room temperature for 24 h, 750 ng/mL): -10.81% | C max, p.o. dosage ([4]; Cmax observed at human equivalent dose of 20 mg, plasma, mice): 700 ng/mL | AUC(0-t) ([4]; BDQ + TBI-166 group (Table S4)): 62050 ± 2520 ng·h/mL | AUC(0-t) ([4]; TBI-166 group (Table S4)): 68950 ± 4840 ng·h/mL | AUC(0-last) ([4]; plasma, BDQ + TBI-166 group): 62,050 ± 2,519 h·ng/mL | AUC(0-last) as percent of single-drug group ([4]; plasma, BDQ + TBI-166 group): 91% | AUC(0-∞) ([4]; plasma, BDQ + TBI-166 group): 103,720 h·ng/mL | C max ([4]; plasma, BDQ + TBI-166 group): 709.45 ± 71.13 ng/mL | MRT(0-t) ([4]; plasma, BDQ + TBI-166 group): 65.18 h | T max ([4]; plasma, BDQ + TBI-166 group): 1 h | t 1/2 ([4]; plasma, BDQ + TBI-166 group (BDQ 25 mg/kg + TBI-166 20 mg/kg, gavage QD 21 days)): 132.67 h | t 1/2 ([4]; plasma, TBI-166 group (TBI-166 20 mg/kg alone, gavage QD 21 days)): 142.03 h | AUC(0-last) [4, 5]: 68,953 ± 4,843 h·ng/mL | AUC(0-∞) [4, 5]: 119,114 h·ng/mL | C max [4, 5]: 1,043.84 ± 92.53 ng/mL | MRT(0-t) [4, 5]: 66.37 h | T max [4, 5]: 1 h | AUC(0-last) as percent of single-drug group ([4]; plasma, TBI-166 group (reference)): 100% | Cmax ([4]; read-out: C max, p.o. dosage, Cmax observed at human equivalent dose of 20 mg, plasma, mice): 1190 nM | IC50 (CYP1A2): 550 nM | IC50 (CYP2A6): 1380 nM | IC50 (CYP2C8): > 50000 nM | IC50 (CYP2C9): 5450 nM | IC50 (CYP2E1): 930 nM
